Patent US20060223826A1, “Indole derivatives as somatostatin agonists or antagonists” (Takeda Pharmaceutical Company Limited Intellectual Property …, priority 2002, published 2006)

Columns and labels:
glucagon secretion = assay: Glucagon secretion inhibitory activity test (rat); format: in vivo; settings: SD rats, male, fasted; 3 mg/kg body weight orally; insulin 2 U/kg s.c. 120 minutes later; plasma glucagon 30 minutes after insulin
Experimental: Glucagon Secretion Inhibitory Activity Test (Rat)
A 0.5% methylcellulose suspension containing the subject compound (3 mg/kg body weight) (compound administration group) or a 0.5% methylcellulose suspension (compound non-administration group) was orally administered to SD rats (male, 7 weeks of age) after fasting overnight, and 120 minutes later, insulin (2 U/kg body weight, Novo Nordisk) was subcutaneously administered. After 30 minutes from the insulin administration, the blood was drawn from the vein of eyegrounds of the rats using capillary, and blood plasma was separated by centrifugation. The concentration of glucagon in the obtained blood plasma was measured by radioimmunoassay using a Daiichi glucagon kit (Daiichi Isotope). As a non-treated group, the concentration of glucagon in the blood plasma of rat of the compound non-administration group free of insulin administration was measured in the same manner as above. […]

[1] = molecular target: T1, human somatostatin receptor 2 (Homo sapiens, UniProt P30874); assay: Measurement of the binding inhibition rate of 125I-somatostatin; settings: membrane fraction of SSTR2-HS5-9 CHO cells; 125I-somatostatin-14; 25° C., 60 minutes; compound concentration not given
T1 construct: expressed in transfected cells; host or cells: CHO cells, clone SSTR2-HS5-9 (membrane fraction)
Experimental: Measurement of the Binding Inhibition Rate of ^125I-Somatostatin
The receptor binding inhibition rate (%) of the subject compound was calculated using human.somatostatin receptor 2 expressing CHO cells and SSTR2-HS5-9 described in WO02/16350.
First, SSTR2-HS5-9 (1×10^9) was floated on a phosphate buffered saline supplemented with 5 mM EDTA (PBS-EDTA) and centrifuged. To the cell pellets was added 10 ml of a homogenate buffer for cells (10 mM NaHCO3, 5 mM EDTA, pH 7.5), which was homogenated using a Polytron homogenizer. The supernatant obtained by centrifugation at 400×g for 15 minutes was further centrifuged at 100,000×g for 1 hour to give a precipitate of the membrane fraction. The precipitates ere suspended in 2 ml of a buffer solution for assay [25 mM Tris-HCl, 1 mM EDTA (Ethylenediaminetetraacetic Acid), 0.1% BSA (Bovine Serum Albumin), 0.25 mM PMSF (Phenylmethylsulfonyl Fluoride), 1 μg/ml pepstatin, 20 μg/ml leupeptin, 10 μg/ml Phosphoramidone, pH 7.5], which was centrifuged at 100,000×g for 1 hour. The membrane fraction recovered as precipitates was suspended again in 20 ml of the buffer solution for assay, which was placed in tubes and stored at −80° C. The suspension was thawed and used at every use.
The thus-obtained membrane fraction of SSTR2-HS5-9 cells was diluted with a buffer solution for assay [25 mM Tris-HCl, 1 mM EDTA (Ethylenediaminetetraacetic Acid), 0.1% BSA (Bovine Serum Albumin), 0.25 mM PMSF (Phenylmethylsulfonyl Fluoride), 1 μg/ml pepstatin, 20 μg/ml leupeptin, 10 μg/ml Phosphoramidone, pH 7.51 to adjust the concentration to 3 μg/ml. The diluate was placed in tubes each in quantity of 173 μl. To this were simultaneously added 2 μl of a solution of a subject compound in DMSO and 25 μl of a 200 pM radioisotope-labeled somatostatin-14 (^125I-somatostatin-14: Amersham). For measurement of the maximum binding, a reaction mixture added with 2 μl of DMSO and 25 μl of a 200 pM ^125I-somatostatin was prepared. For measurement of non-specific binding, a reaction mixture added with 2 μl of a 100 μm somatostatin solution in DMSO and 25 μl of a 200 pM ^125I-somatostatin-14 solution was prepared at the same time. The mixtures were allowed to react at 25° C. for 60 minutes. Then, the reaction mixture was filtered by aspiration using a Whatman glass filter (GF-B) treated with polyethylenimine. After filtration, the radioactivity of ^125I-somatostatin-14 remaining on the filter paper was measured by a γ-counter. The binding inhibition rate (%) of each subject compound was calculated by the following formula: (TB−SB)/(TB−NSB)×100 • SB: radioactivity when a subject compound was added • TB: maximum binding radioactivity • NSB: non-specific binding radioactivity

T1 sequence (P30874 whole entry): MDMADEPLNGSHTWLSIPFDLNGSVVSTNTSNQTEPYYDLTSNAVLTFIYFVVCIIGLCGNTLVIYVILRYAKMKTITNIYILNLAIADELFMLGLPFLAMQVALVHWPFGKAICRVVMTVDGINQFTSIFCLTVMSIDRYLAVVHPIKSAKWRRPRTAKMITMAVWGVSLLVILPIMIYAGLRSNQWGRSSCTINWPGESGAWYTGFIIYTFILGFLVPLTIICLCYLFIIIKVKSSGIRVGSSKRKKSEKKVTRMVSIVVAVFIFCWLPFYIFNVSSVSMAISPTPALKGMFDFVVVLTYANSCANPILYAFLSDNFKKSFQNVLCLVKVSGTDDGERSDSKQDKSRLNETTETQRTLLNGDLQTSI

SMILES | glucagon secretion (% of control) (glucagon secretion) | binding inhibition rate (%) [1] [%]
C[C@@H](c1c[nH]c2ccccc12)[C@@H](NC(=O)N1CCC(c2ccccc2)CC1)C(=O)Nc1cccc(CN(C)C)c1 [Example 1, N-((1R,2S)-1-(((3-((dimethylamino)methyl)phenyl)amino)carbonyl)-2-(1H-indol-3-yl)propyl)-4-phenyl-1-piperidinecarboxamide] | 9.5 % of control | 98
CCOc1ccc(CN(C)C)cc1NC(=O)[C@H](NC(=O)N1CCC(c2ccccc2)CC1)[C@@H](C)c1c[nH]c2ccccc12 [Example 54, N-((1R,2S)-1-(((5-((dimethylamino)methyl)-2-ethoxyphenyl)amino)carbonyl)-2-(1H-indol-3-yl)propyl)-4-phenyl-1-piperidinecarboxamide] |  | 100
CCOc1ccc(CN(C)C)cc1NC(=O)[C@H](NC(=O)N1CCN(c2ccc(F)cc2)CC1)[C@@H](C)c1c[nH]c2ccccc12 [Example 67, N-((1R,2S)-1-(((5-((dimethylamino)methyl)-2-ethoxyphenyl)amino)carbonyl)-2-(1H-indol-3-yl)propyl)-4-(4-fluorophenyl)-1-piperazinecarboxamide] |  | 96
C[C@@H](c1c[nH]c2ccccc12)[C@@H](NC(=O)N1CCC(Oc2ccc(F)cc2)CC1)C(=O)Nc1cccc(CN(C)C)c1 [Example 2, N-( (1R,2S)-1-( ((3-((dimethylamino)methyl)phenyl)amino)carbonyl)-2-(1H-indol-3-yl)propyl)-4-(4-fluorophenoxy)-1-piperidinecarboxamide] |  | 100
